Values of other authors as cited in patent publication US4024245A, “Antibiotic A-30912 and process for production thereof” (priority 1976, dated 1977).

Test system: dermatophytes
Details: F. Benz et al., Helv. Chim. Acta 57, 2459-2477 (1974)

Substance: Echinocandin B
- activity against dermatophytes: inactive against dermatophytes
